Laboratory results from patent US20020151553A1, “Chemokine receptor antagonists and methods of use therefor” (Millennium Pharmaceuticals, Inc., priority 1996, published 2002).
Read-outs that look alike come from different tables or passages of the source.

Target: T1, chemokine receptor (RANTES / MIP-1α binding) on THP-1 cell membranes (Homo sapiens, UniProt P32246)
T1 sequence (P32246 1-355): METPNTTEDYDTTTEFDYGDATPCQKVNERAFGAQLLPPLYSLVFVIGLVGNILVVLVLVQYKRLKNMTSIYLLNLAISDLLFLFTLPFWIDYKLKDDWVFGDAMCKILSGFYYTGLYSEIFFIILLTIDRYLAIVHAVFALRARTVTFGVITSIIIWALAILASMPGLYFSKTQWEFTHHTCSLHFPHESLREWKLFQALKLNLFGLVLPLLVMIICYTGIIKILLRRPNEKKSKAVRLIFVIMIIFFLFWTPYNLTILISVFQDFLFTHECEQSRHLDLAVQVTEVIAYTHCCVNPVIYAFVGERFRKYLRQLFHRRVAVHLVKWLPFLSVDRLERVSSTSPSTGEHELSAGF
Experiment: Receptor binding assay with 125I-RANTES or 125I-MIP-1α as ligand and THP-1 cell membranes
Procedure: Membranes were prepared from THP-1 cells (ATCC #TIB202). Cells were harvested by centrifugation, washed twice with PBS (phosphate-buffered saline), and the cell pellets were frozen at −70 to −85° C. […] This procedure results in cell lysis. The suspension was mixed well to resuspend all of the frozen cell pellet. Nuclei and cell debris were removed by centrifugation of 400× g for 10 minutes at 4° C. The supernatant was transferred to a fresh tube and the membrane fragments were collected by centrifugation at 25,000× g for 30 minutes at 4° C. The supernatant was aspirated and the pellet was resuspended in freezing buffer consisting of 10 mM HEPES pH 7.5, 300 mM sucrose, 1 μg/ml each aprotinin, leupeptin, and chymostatin, and 10 μg/ml PMSF approximately 0.1 ml per each 10^8 cells). All clumps were resolved using a minihomogenizer, and the total protein concentration was determined using a protein assay kit (Bio-Rad, Hercules, Calif., cat #500-0002). The membrane solution was then aliquoted and frozen at −70 to −85° C. until needed. Binding Assays utilized the membranes described above.

[1] = 125I-RANTES or 125I-MIP-1α as ligand, THP-1 cell membranes, 60 min at room temperature, read-out: IC50 (inhibitor concentration required for 50% inhibition of specific binding)

Molecule	IC50 [1]	IC50
1-[2-[3-[4-(4-chlorophenyl)-4-hydroxypiperidino]propyl]-2-(6,11-dihydrodibenzo[b,e]thiepi n-11-yl)ethyl]-3-(hydroxypropyl)urea [Example 23]	2200 nM	–
N#CC1(CCCN2CCC(O)(c3ccc(Cl)cc3)CC2)c2ccccc2C[S+]([O-])c2ccccc21 (single isomer, unassigned) [Example 14, 4-(4-Chlorophenyl)-1-[3-(11-cyano-6,11-dihydro-5-oxodibenzo[b,e]thiepin-11-yl)propyl]piperidin-4-ol]	–	280 nM
N#CC1(CCCN2CCC(O)(c3ccc(Cl)cc3)CC2)c2ccccc2C[S+]([O-])c2ccccc21 (single isomer, unassigned) [Example 15, 4-(4-Chlorophenyl)-1-[3-(11-cyano-6,11-dihydro-5-oxodibenzo[b,e]thiepin-11-yl)propyl]piperidin-4-ol]	–	610 nM
N#CC1(CCCN2CCC(O)(c3ccc(Cl)cc3)CC2)c2ccccc2C=Cc2ccccc21 [Example 1, 4-(4-Chlorophenyl)1-[3-(5-cyano-5H-dibenzo[a,d]cycloheptene-5-yl)propyl]piperidin-4-ol]	88 nM	–
N#CC1(CCCN2CCC(O)(c3ccc(Cl)cc3)CC2)c2ccccc2CCc2ccccc21 [Example 2, 4-(4-Chlorophenyl)-1-[3-(5-cyano-10,11-dihydro-5H-dibenzo[a,d]cycloheptene-5-yl)propyl]piperidin-4-ol]	–	52 nM
N#CC1(CCCN2CCC(O)(c3ccc(Cl)cc3)CC2)c2ccccc2COc2ccccc21 (centres unmarked) [Example 3, 4-(4-Chlorophenyl)-1-[3-(11-cyano-6,11-dihydrodibenz[b,e]oxepin-11-yl)propyl]piperidin-4-ol]	110 nM	–
N#CC1(CCCN2CCC(O)(c3ccc(F)cc3)CC2)c2ccccc2COc2ccccc21 (centres unmarked) [Example 4, 1-[3-(11-Cyano-6,11-dihydrodibenz[b,e]oxepin-11-yl)propyl]-4-(4-fluorophenyl)piperidin-4-ol]	390 nM	–
N#CC1(CCCN2CCC(O)(c3ccc(Cl)cc3)CC2)c2ccccc2COc2ccc(F)cc21 (centres unmarked) [Example 5, 4-(4-Chlorophenyl)-1-[3-(11-cyano-6,11-dihydro-2-fluorodibenz[b,e]oxepin-11-yl)propyl]piperidin-4-ol]	190 nM	–
N#CC1(CCCN2CCC(O)(c3ccc(Cl)cc3)CC2)c2ccccc2COc2ccc(Br)cc21 (centres unmarked) [Example 6, 1-[3-(2-Bromo-11-cyano-6,11-dihydrodibenz[b,e]oxepin-11-yl)propyl]-4-(4-chlorophenyl)piperidin-4-ol]	300 nM	–
Cc1ccc2c(c1)C(C#N)(CCCN1CCC(O)(c3ccc(Cl)cc3)CC1)c1ccccc1CO2 (centres unmarked) [Example 7, 4-(4-Chlorophenyl)-1-[3-(11-cyano-6,11-dihydro-2-methyldibenz[b,e]oxepin-11-yl)propyl]piperidin-4-ol]	380 nM	–
N#CC1(CCCN2CCC(O)(c3ccc(Cl)cc3)CC2)c2ccccc2CSc2ccccc21 (centres unmarked) [Example 10, 4-(4-Chlorophenyl)-1-[3-(11-cyano-6,11-dihydrodibenzo[b,e]thiepin-11-yl)propyl] piperidin-4-ol]	–	97 nM
N#CC1(CCCN2CCC(O)(c3ccccc3)CC2)c2ccccc2CSc2ccccc21 (centres unmarked) [Example 11, 1-[3-(1l-Cyano-6,11-dihydrodibenzo[b,e]thiepin-11-yl)propyl]-4-phenylpiperidin-4-ol]	11000 nM	–
N#CC1(CCCN2CCC(O)(c3ccc(Br)cc3)CC2)c2ccccc2CSc2ccccc21 (centres unmarked) [Example 12, 4-(4-Bromophenyl)-1-[3-(11-cyano-6,11-dihydrodibenzo[b,e]thiepin-11-yl)propyl]piperidi n-4-ol]	99 nM	–
N#CC1(CCCN2CCC(O)(c3ccc(Cl)cc3)CC2)c2ccccc2CSc2ccc(Br)cc21 (centres unmarked) [Example 13, 1-[3-(2-Bromo-11-cyano-6,11-dihydrodibenzo[b,e]thiepin-11-yl)propyl]-4-(4-chlorophenyl)piperidin-4-ol]	380 nM	–
N#CC1(CCCN2CCC(O)(c3ccc(Cl)cc3)CC2)c2ccccc2CS(=O)(=O)c2ccccc21 (centres unmarked) [Example 16, 4-(4-Chlorophenyl)-1-[3-(11-cyano-6,11-dihydro-5,5-dioxodibenzo[b,e]thiepin-11-yl)propyl]piperidin-4-ol]	79 nM	–
OC1(c2ccc(Cl)cc2)CCN(CCCC2c3ccccc3CSc3ccccc32)CC1 (centres unmarked) [Example 17, 4-(4-Chlorophenyl)-1-[3-(6,11-dihydrodibenzo[b,e]thiepin-11-yl)propyl]piperidin-4-ol]	70 nM	–
OC1(c2ccc(Cl)cc2)CCN(CCCC2c3ccccc3CCc3ccccc32)CC1 [Example 18, 4-(4-Chlorophenyl)-1-[3-(10,11-dihydro-5H-dibenzo[a,d]cycloheptene-5-yl)propyl]piperidin-4-ol]	55 nM	–
OC1(c2ccc(Cl)cc2)CCN(CCCC2c3ccccc3COc3ccccc32)CC1 (centres unmarked) [Example 19, 4-(4-Chlorophenyl)-1-[3-(6,11-dihydrodibenz[b,e]oxepin-11-yl)propyl]piperidin-4-ol]	59 nM	–
O=C(NCC1(CCCN2CCC(O)(c3ccc(Cl)cc3)CC2)c2ccccc2CSc2ccccc21)Oc1ccccc1 (centres unmarked) [Example 22]	–	690 nM
O=C(CCN1CCC(O)(c2ccc(Cl)cc2)CC1)C1c2ccccc2CCc2ccccc21 [Example 24, 4-(4-Chlorophenyl)-1-[3-(10,11-dihydro-5H-dibenzo[a,d]cycloheptene-5-yl)-3-propioyl]piperidin-4-ol]	–	160 nM
